Laboratory results as given in the supplement of paper PMC8149375.

How the values were obtained:
Conditions in all cases: treatment: drug + dasatinib (fixed dose, not stated); 5 days
CAKI-1 [1] = assay: AUC of dose-response viability curve, drug + dasatinib, normalised to DMSO (arbitrary (AUC of normalised viability)); higher = less growth inhibition
Description: (§1)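 Primary HTS combination arm: 8 RCC cell lines treated with 8 doses (up to 10 uM) of each library drug plus a fixed dose of dasatinib (dose not stated) for 5 days; viability read by CellTiter-Glo and normalised to DMSO. GI50 was fitted with XLfit, AUC is the area under the dose-response curve, and minimum viability is the lowest fraction of DMSO viability across doses.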

ACHN [2] = assay: as above
Description: as §1

SN12C [3] = assay: as above
Description: as §1

786-O [4] = assay: as above
Description: as §1

UO-31 [5] = assay: as above
Description: as §1

A498 [6] = assay: as above
Description: as §1

769-P [7] = assay: as above
Description: as §1

TK-10 [8] = assay: as above
Description: as §1

CAKI-1 [9] = assay: minimum viability across doses, drug + dasatinib, relative to DMSO (fraction); higher = less growth inhibition
Description: as §1

ACHN [10] = assay: as above
Description: as §1

SN12C [11] = assay: as above
Description: as §1

786-O [12] = assay: as above
Description: as §1

UO-31 [13] = assay: as above
Description: as §1

A498 [14] = assay: as above
Description: as §1

769-P [15] = assay: as above
Description: as §1

TK-10 [16] = assay: as above
Description: as §1

CAKI-1 [17] = assay: GI50 of drug in presence of dasatinib; higher = less potent
Description: as §1

ACHN [18] = assay: as above
Description: as §1

SN12C [19] = assay: as above
Description: as §1

786-O [20] = assay: as above
Description: as §1

UO-31 [21] = assay: as above
Description: as §1

A498 [22] = assay: as above
Description: as §1

769-P [23] = assay: as above
Description: as §1

TK-10 [24] = assay: as above
Description: as §1

GI50 of drug (ACHN [18])	GI50 of drug (786-O [20])	SMILES	AUC of dose-response viability curve (CAKI-1 [1])	AUC of dose-response viability curve (ACHN [2])	AUC of dose-response viability curve (SN12C [3])	AUC of dose-response viability curve (786-O [4])	AUC of dose-response viability curve (UO-31 [5])	AUC of dose-response viability curve (A498 [6])	AUC of dose-response viability curve (769-P [7])	AUC of dose-response viability curve (TK-10 [8])	minimum viability across doses (CAKI-1 [9])	minimum viability across doses (ACHN [10])	minimum viability across doses (SN12C [11])	minimum viability across doses (786-O [12])	minimum viability across doses (UO-31 [13])	minimum viability across doses (A498 [14])	minimum viability across doses (769-P [15])	minimum viability across doses (TK-10 [16])	GI50 of drug (CAKI-1 [17])	GI50 of drug (SN12C [19])	GI50 of drug (UO-31 [21])	GI50 of drug (A498 [22])	GI50 of drug (769-P [23])	GI50 of drug (TK-10 [24])
3.71 µM	> 10 µM	Cc1ccc(F)c(NC(=O)Nc2ccc(-c3cccc4[nH]nc(N)c34)cc2)c1 [Linifanib (ABT-869)] + Cc1nc(Nc2ncc(C(=O)Nc3c(C)cccc3Cl)s2)cc(N2CCN(CCO)CC2)n1 [dasatinib]	2.21	2.4	2.25	2.63	3.5	3.28	2.33	2.58	0.213	0.244	0.312	0.557	0.729	0.279	0.27	0.231	7.59 µM	1.87 µM	> 10 µM	9.11 µM	4 µM	3.45 µM
0.398 µM	0.641 µM	O=C(O)c1ccc(Nc2ncc3c(n2)-c2ccc(Cl)cc2C(c2c(F)cccc2F)=NC3)cc1 [MLN8054] + Cc1nc(Nc2ncc(C(=O)Nc3c(C)cccc3Cl)s2)cc(N2CCN(CCO)CC2)n1 [dasatinib]	1.93	1.77	2.22	2.01	2.92	2.68	2.14	2.58	0.277	0.219	0.425	0.157	0.645	0.354	0.306	0.585	0.641 µM	3.92 µM	> 10 µM	4.23 µM	1.19 µM	> 10 µM

Further lines, the molecule ahead of its results:

SMILES	GI50 of drug (ACHN [18])	GI50 of drug (786-O [20])	AUC of dose-response viability curve (CAKI-1 [1])	AUC of dose-response viability curve (ACHN [2])	AUC of dose-response viability curve (SN12C [3])	AUC of dose-response viability curve (786-O [4])	AUC of dose-response viability curve (UO-31 [5])	AUC of dose-response viability curve (A498 [6])	AUC of dose-response viability curve (769-P [7])	AUC of dose-response viability curve (TK-10 [8])	minimum viability across doses (CAKI-1 [9])	minimum viability across doses (ACHN [10])	minimum viability across doses (SN12C [11])	minimum viability across doses (786-O [12])	minimum viability across doses (UO-31 [13])	minimum viability across doses (A498 [14])	minimum viability across doses (769-P [15])	minimum viability across doses (TK-10 [16])	GI50 of drug (CAKI-1 [17])	GI50 of drug (SN12C [19])	GI50 of drug (UO-31 [21])	GI50 of drug (A498 [22])	GI50 of drug (769-P [23])	GI50 of drug (TK-10 [24])
C[C@]1(O)C[C@@H](c2nc(-c3ccc4ccc(-c5ccccc5)nc4c3)c3c(N)nccn32)C1 [Linsitinib (OSI-906)] + Cc1nc(Nc2ncc(C(=O)Nc3c(C)cccc3Cl)s2)cc(N2CCN(CCO)CC2)n1 [dasatinib]	2.97 µM	> 10 µM	2.2	1.89	2.28	2.64	3.19	3.31	2.3	2.43	0.259	0.361	0.592	0.689	0.647	0.824	0.527	0.55	2.6 µM	> 10 µM	> 10 µM	> 10 µM	> 10 µM	> 10 µM
Cn1cnc(-c2cc3nccc(Oc4ccc(NC(=S)NC(=O)Cc5ccccc5)cc4F)c3s2)c1 [MGCD-265] + Cc1nc(Nc2ncc(C(=O)Nc3c(C)cccc3Cl)s2)cc(N2CCN(CCO)CC2)n1 [dasatinib]	2.83 µM	> 10 µM	2.21	2.13	2.38	2.64	3.44	3.49	2.39	2.82	0.256	0.44	0.515	0.646	0.107	0.676	0.557	0.727	3.63 µM	> 10 µM	5.72 µM	> 10 µM	> 10 µM	> 10 µM
CN(C[C@@H]1COCCO1)S(=O)(=O)Nc1ccc2ccc3ncc(-c4cnn(C)c4)cc3c(=O)c2c1 [MK-2461] + Cc1nc(Nc2ncc(C(=O)Nc3c(C)cccc3Cl)s2)cc(N2CCN(CCO)CC2)n1 [dasatinib]	0.0109 µM	> 10 µM	1.71	1.23	2.14	4.08	5.47	4.48	2.49	2.19	0.0412	0.121	0.179	0.638	0.227	0.919	0.362	0.287	0.45 µM	> 10 µM	5.33 µM	> 10 µM	6.28 µM	2.91 µM
O=C(O)[C@]1(Cc2cccc(Nc3nccs3)n2)CC[C@@H](Oc2cccc(Cl)c2F)CC1 [MK-5108 (VX-689)] + Cc1nc(Nc2ncc(C(=O)Nc3c(C)cccc3Cl)s2)cc(N2CCN(CCO)CC2)n1 [dasatinib]	0.0401 µM	0.105 µM	1.86	1.51	1.96	1.07	3.91	2.89	2.18	2.14	0.216	0.227	0.174	0.00534	0.37	0.339	0.202	0.372	0.355 µM	0.944 µM	4.08 µM	1.99 µM	1.36 µM	1.48 µM
Cc1ccc(NC(=O)c2ccc(CN3CCN(C)CC3)cc2)cc1Nc1nc(-c2cccnc2)cs1 [Masitinib (AB1010)] + Cc1nc(Nc2ncc(C(=O)Nc3c(C)cccc3Cl)s2)cc(N2CCN(CCO)CC2)n1 [dasatinib]	0.46 µM	4.05 µM	2.28	1.96	2.51	2.55	3.05	3.05	2.3	2.71	0.438	0.263	0.484	0.204	0.271	0.622	0.377	0.57	6.75 µM	> 10 µM	6.09 µM	> 10 µM	4.7 µM	> 10 µM
